The test system of this assay is APP/PS1 mice. As to the kind of experiment: Immunohistochemistry of hippocampus, APP/PS1 mice. The format is in vivo, mouse. As to the method:
For an animal model of AD, both sexes of 10- to 18-month-old APP/PS1 mice were maintained and used as previously described.[76],[77] To test the effects of novel H2O2-decomposing enhancers in the AD model, the mice were treated by i.p. injection with KDS12008 (3 mg/kg/day), KDS12017 (3 mg/kg/day), or KDS12025 (3 or 10 mg/kg/day) once per day for 1 or 2 weeks, depending on the experimental protocol. All drugs were dissolved in 200 μl of saline, and the amount of each drug was calculated on the basis of the weight (kg) of the mouse. Moreover, KDS12025 (3 mg/kg/day) was orally administered to the AD model for 2 weeks ad libitum.
The mice were deeply anesthetized with vaporized 1% isoflurane and placed into stereotaxic frames (RWD Life Science, China). Following an incision on the midline of the scalp, a hole was drilled into the skull above the hippocampus. AAV-GFAP104-GFP or AAV-GFAP104-DTR-GFP was bilaterally microinjected into the hippocampal CA1 region (AP, −2.0 mm; ML, ±1.5 mm; DV, −1.65 mm from the bregma). Diphtheria toxin (2 mg/ml) was administered for 16 days as previously described.[77] For shRNA knockdown, AAV-pSicoR-Hbβ-shRNA-mCherry or AAV-pSicoR-Sc-shRNA-mCherry was microinjected into the same coordinate system. A total of 0.8 µl of the virus was injected via a syringe pump (KD Scientific, USA). The injection procedures were implemented before 5 weeks of the experiments. For cell type-specific knockdown, AAV-pSico-Hbβ-shRNA-GFP or AAV-pSico-Sc-shRNA-GFP was combined with either AAV-CaMKII-Cre-mCherry for neuronal targeting or AAV-GFAP-Cre-mCherry for astrocyte targeting. The viruses were bilaterally injected into the hippocampus and substantia nigra via the same stereotaxic coordinates and injection procedures. All viruses used in this study were produced at the Institute for Basic Science virus facility (IBS virus facility, Korea). To investigate the effects of 0.1 mg/kg/day KDS12025, GiD mice were injected with diphtheria toxin (2 mg/ml) daily for 16 days. Concurrently, KDS12025 was administered ad libitum (0.1 mg/kg/day) during the same period.
The mice were deeply anesthetized with 2% isoflurane and positioned on the operating table. After the abdomen was opened and the heart was exposed, the […] were perfused with saline, followed by 4% paraformaldehyde (PFA) in 0.1 M PBS. The mice were decapitated, and the brains were excised from the skull. Excised brains were postfixed in 4% PFA overnight at 4 °C and dehydrated in 30% sucrose for 48 h. Coronal hippocampal sections were cut at 30 µm thickness with a cryostat and stored in storage solution. For the ALS experiments, lumbar spinal cords (L2–L5) were also carefully dissected and immediately immersed in 4% PFA for postfixation. The sections were fully washed in 0.1 M PBS and incubated for 1 h in blocking solution (0.3% Triton X-100, 2% donkey and goat serum in 0.1 M PBS). Next, a mixture of primary antibodies in the blocking solution was used for immunostaining on a shaker overnight at 4 °C. The sections were washed in PBS three times. After washing, the sections were incubated with the corresponding fluorescent secondary antibodies for 1 h at RT. DAPI staining was performed by adding a DAPI solution (1:2000) during the second washing step. After the washing step was complete, the sections were mounted on cover slides with mounting medium. A series of fluorescence images were obtained with an LSM900 (Zeiss, Germany) confocal microscope or Lattice SIM Elyra 7 (Zeiss, Germany). The 15–22 μm Z stack images in 1–2 μm steps were processed for image analysis, which was performed via the ImageJ (NIH, US) and ZEN digital imaging for light microscopy blue system (Zeiss, Germany) programs.

Molecules are shown by their SMILES.

Regarding `CNc1ccc(NCCc2ccccc2OC)cc1.Cl` [KDS12025, N^1-(2-methoxyphenethyl)-N^4-methylbenzene-1,4-diamine hydrochloride salt], the “mean Hbβ intensity in GFAP-positive areas” value (3 mg/kg/day ad libitum, Fig. 5e) is on record as “WT (70.03±1.523, n=55), APP (62.3±1.219, n=65), APP+KDS12025 (ad libitum) (68.67±2.358, n=54) One-way ANOVA with Tukey's multiple comparisons test, F(2,171) = 6.123, p = 0.003 WT vs. APP, p = 0.004; WT vs. APP+KDS12025 (ad libitum), p = 0.85; APP vs. APP+KDS12025 (ad libitum), p = 0.02”. Also, the “mean GFAP intensity in GFAP-positive areas” value (3 mg/kg/day ad libitum, Fig. 5f) is “WT (61.01±2.28, n=6), APP (114.3±9.536, n=6), APP+KDS12025 (ad libitum) (64.48±6.98, n=6) One-way ANOVA with Tukey's multiple comparisons test, F(2,14) = 17.24, p < 0.001 WT vs. APP, p < 0.001; WT vs. APP+KDS12025 (ad libitum), p = 0.89; APP vs. APP+KDS12025 (ad libitum), p < 0.001”. Also, the “Sholl analysis, sum of intersections” value is, setting by setting: (3 mg/kg/day ad libitum, Fig. 5g) “WT (31.45±3.606, n=11), APP (63.19±5.017, n=16), APP+KDS12025 (ad libitum) (33.69±3.3, n=13) One-way ANOVA with Tukey's multiple comparisons test, F(2,37) = 18.10, p < 0.001 WT vs. APP, p < 0.001; WT vs. APP+KDS12025 (ad libitum), p = 0.94; APP vs. APP+KDS12025 (ad libitum), p < 0.001”; (APP+ScRNA+KDS12025, Fig. S16e) 142.4±8.715; (APP+shHbβ+KDS12025, Fig. S16e) 234.3±16.93. In addition, the “Sholl analysis, ending radius” value runs as follows: (3 mg/kg/day ad libitum, Fig. 5i) “WT (110.0±6.606, n=11), APP (135.6±5.625, n=16), APP+KDS12025 (ad libitum) (103.1±7.794, n=13) One-way ANOVA with Tukey's multiple comparisons test, F(2,37) = 7.249, p = 0.002 WT vs. APP, p = 0.03; WT vs. APP+KDS12025 (ad libitum), p = 0.77; APP vs. APP+KDS12025 (ad libitum), p = 0.003”; (APP+ScRNA+KDS12025, Fig. S16f) 54.48±2.319; (APP+shHbβ+KDS12025, Fig. S16f) 100.4±6.075. In addition, the “Sholl analysis, number of intersections” value reads like this: (3 mg/kg/day ad libitum, Fig. 5j) “Two-way ANOVA with Tukey's multiple comparison test, F (2,378) = 37.72, p < 0.001 WT (2.028, n=12), APP (4.318, n=17), APP+KDS12025 (ad libitum) (2.392, n=12) WT vs. APP, p < 0.001 (***); WT vs. APP+KDS12025 (ad libitum), p = 0.52; APP vs. APP+KDS12025 (ad libitum), p < 0.001 (^###)”; (APP+ScRNA+KDS12025, Fig. S16g) 4.984±0.7027. For the same compound, for the setting “3 mg/kg/day ad libitum, Fig. 5h”, the “Sholl analysis, ramification index” value was “WT (1.617±0.2177, n=11), APP (7.134±1.523, n=16), APP+KDS12025 (ad libitum) (2.808±0.6584, n=13) One-way ANOVA with Tukey's multiple comparisons test, F(2,37) = 6.945, p = 0.003 WT vs. APP, p = 0.004; WT vs. APP+KDS12025 (ad libitum), p = 0.76; APP vs. APP+KDS12025 (ad libitum), p = 0.02”. The “mean intensity of GABA in GFAP-positive area” value (3 mg/kg/day ad libitum, Fig. S11c) was “WT (41.73±1.1951, n=19), APP (50.90±1.074, n=41), APP+KDS12025 (ad libitum) (44.45±1.015, n=28) One-way ANOVA with Tukey's multiple comparisons test, F(2,85) = 14.24, p < 0.001 WT vs. APP, p < 0.001; WT vs. APP+KDS12025 (ad libitum), p = 0.38; APP vs. APP+KDS12025 (ad libitum), p < 0.001”. For the same compound, the “mean intensity of 8-OHdG in GFAP-positive area” value (3 mg/kg/day ad libitum, Fig. S11d) was “WT (1903±72.86, n=32), APP (2435±66.11, n=58), APP+KDS12025 (ad libitum) (1951±48.61, n=57) One-way ANOVA with Tukey's multiple comparisons test, F(2,144) = 23.42, p < 0.001 WT vs. APP, p < 0.001; WT vs. APP+KDS12025 (ad libitum), p = 0.88; APP vs. APP+KDS12025 (ad libitum), p < 0.001”. For the same compound, where the note is “3 mg/kg/day i.p., Fig. S10e”, the “mean intensity of Iba1 in the hippocampus” value was 1343±38.44. In addition, the “mean intensity of GFAP in the hippocampus” value reads like this: (3 mg/kg/day i.p., Fig. S10d) 1190±87.29; (3mpk i.p., Fig. S10i) 59.33±6.459; (10mpk i.p., Fig. S10i) 56.71±4.775. Also, the GFAP-positive area is recorded as 142.4±8.715 (APP+ScRNA+KDS12025, Fig. 6i) and 234.3±16.93 (APP+shHbβ+KDS12025, Fig. 6i). Besides, the GFAP intensity is given as 124.3±1.773 (APP+ScRNA+KDS12025, Fig. 6j) and 146.8±2.262 (APP+shHbβ+KDS12025, Fig. 6j). In addition, the “Hbβ intensity in GFAP-positive areas” value is, setting by setting: (APP+ScRNA+KDS12025, Fig. 6h) 10.10±0.4531; (APP+shHbβ+KDS12025, Fig. 6h) 6.275±0.4473.

These data come from publication PMC12373846, “Hemoglobin as a pseudoperoxidase and drug target for oxidative stress-related diseases” (Signal Transduction and Targeted Therapy, 2025).
